Series [1] has as its system eye. Briefly: pilocarpine drops for constriction of the pupil, with or without tramadol drops. The format is in vivo. On the procedure:
In a first example, an eye was treated with pilocarpine drops to cause constriction of the pupil (in this particular example, as part of an ophthalmic diagnostic procedure, although pilocarpine is also be used therapeutically). Such drops can cause significant discomfort and excessive tear formation, possibly washing pilocarpine out of the eye before it could take effect. […] This implies that the tramadol may well be improving the absorption of other drugs.

For another series, the system named is undamaged eye. The following applies: topically applied to an undamaged eye; cited from earlier work.
For series [2], the system named is eye. In words: eye-drop formulation with tramadol in the left eye of a healthy subject, sensation in the eye. It is filed as in vivo, human. The following applies: 0.5% w/v tramadol eye-drop. On the procedure:
In a third example, a conventional ophthalmic eye-drop formulation was made up, but with the addition of 0.5% w/v tramadol. This formulation was administered to the left eye of a healthy subject. […] Sensation in the right eye remained normal.

Series [3] deals with eye. In words: ciclosporin composition with added tramadol, post-operative treatment following a corneal transplant. The format is in vivo. The following applies: addition of 0.5% w/v tramadol to the composition. The text has this: In a second example, a composition containing ciclosporin would normally be administered to the eye in post-operative treatment following a corneal transplant, to avoid transplant rejection. However, this would lead to significant additional levels of discomfort in the eye.

Series [4] has as its system eye. In words: sixth example: tramadol eye-drops in a painful infection of the eye. It is filed as in vivo, human. From the text:
In a sixth example, an infection of the subject's eye required treatment with antibiotics. However, the subject was unable to open the respective eyelid due to the consequent pain.

Series [5] relates to eye. Briefly: fourth example: patient suffering from dry-eye, tramadol eye-drops, artificial tears, or combination. It is filed as in vivo, human. The following applies: topical. The text has this: In a fourth example, administration of the tramadol-containing eye-drop formulation of the third example to a patient suffering from “dry-eye” reduced the resultant discomfort as expected. […] However, the discomfort remained, which for many patients would lead to actions such as rubbing the affected eye, counteracting much of the improvement.

In series [6] the test system is eye. Briefly: ninth example: tramadol eye-drops in blepharitis with reduced tear break-up time. The format is in vivo, human. Particulars: eye-drops containing 1.0% w/v tramadol. From the text: In a ninth example, a middle-aged person with blepharitis and no corneal staining but a reduced tear break-up time was given eye-drops containing 1.0% w/v tramadol.
For series [7], the system named is eye. In words: eighth example: tramadol eye-drops in dry eyes with unstable tear films, tear osmolarity and pain. The following applies: for pain: dry eye. The format is in vivo, human. From the text: In an eighth example, a person presented with dry eyes and unstable tear films, typical symptoms of “dry eye”. The patient's tear osmolarity improved, after use of an eye-drop containing 0.5% w/v tramadol in one eye, from 312 milliOsmoles before instillation of the eye drop to 299 milliOsmoles one hour after instillation.

For series [8], the system named is eye. Briefly: seventh example: tramadol eye-drops in allergic eye disease. The format is in vivo, human. The text has this: In a seventh example, a person presented with an allergic eye disease, resulting in significant prolonged itchiness.
[9] abbreviates: drops containing tramadol administered before or in conjunction with the pilocarpine drops.
Where [10] appears, read: eye-drop formulation comprising 0.5% w/v tramadol.
[11] abbreviates: tramadol 0.5% w/v where present.
Where [12] appears, read: middle-aged person with blepharitis.

Structures are written as SMILES. Bounds are passed on as bounds.

Consider `CC[C@@H]1C(=O)OC[C@@H]1Cc1cncn1C` [pilocarpine], for which the “effectiveness in constriction of the pupil” value in the series with eye [1] (0.5% w/v pilocarpine administered promptly after or in conjunction with tramadol) is “as effective as 1% w/v pilocarpine administered without tramadol present”.
On to `CN1CC[C@]23c4c5ccc(O)c4O[C@H]2[C@@H](O)C=C[C@H]3[C@H]1C5` [morphine], for which the analgesic effect entry in the series on undamaged eye is recorded as “very little or no analgesic effect”.
On to `COc1cccc(C2(O)CCCCC2CN(C)C)c1` (centres unmarked) [tramadol], for which, in the series on eye [2], the “duration of numbing effect” value is “at least 110 minutes”, the side-effects result is “No side-effects were noted” and the “time to noticeably reduced sensation in the eye after instillation” value was no more than 3 min. In addition, in the series with eye [1] (setting [9]), the “discomfort caused by pilocarpine drops” value was “greatly reduced” and the “tear formation caused by pilocarpine drops” value is “greatly reduced”. In addition, the “effectiveness of the ciclosporin” value in the series with eye [3] is reported as “improve”. Further, the “discomfort in the eye from ciclosporin composition” value with eye [3] (post corneal transplant) is “significantly reduce”. In addition, in the series with eye [4] (0.5% w/v tramadol followed by antibiotics), the “resolution of the infection” value is “more rapidly than would have been expected”. In addition, in the series with eye [4] (setting [10]), the discomfort result is recorded as “rapidly reduced”, the “opening of the eyelid” value is listed as “permitting opening of the eyelid” and the “vision in the treated eye” value is “allowed reasonable vision”. Further, in the series on eye [5] (tramadol 0.5% w/v), the blinking result was “reduction in blinking”. Also, in the series on eye [5] (setting [11]), the discomfort / pain entry is “reduced”; the “dryness / lubrication of the eye” value is on record as “dryness remained”; the “physical signs (symptoms and signs)” value is on record as “did not improve”. The blepharitis entry with eye [6] (middle-aged male) is “improved”. In the series on eye [6] (setting [12]), the irritable symptoms entry was “improvement”; the tear break-up time result was “improved, and so did the tear break-up time”. Further, the pain entry with eye [7] (eye-drop containing 0.5% w/v tramadol) is reported as “reduced”. In addition, the pain result with eye [7] (eye-drop containing 1.0% w/v tramadol) is given as “reduced the patient's pain further”. The tear osmolarity in the series on eye [7] (one hour after instillation of eye-drop containing 0.5% w/v tramadol, 312 milliOsmoles before instillation, person with dry eye) was determined as 299 milliOsmoles. For the same compound, the associated redness entry in the series with eye [8] (allergic eye disease, eye-drop containing 0.5% w/v tramadol, versus saline drops alone) was “improved with time faster than for the conventional treatment with saline drops alone”. In the series on eye [8] (allergic eye disease, person, eye-drop containing 0.5% w/v tramadol), the itchiness result is given as “improved within a few minutes”. Moreover, the “results in allergic eye disease (itchiness, redness)” value in the series on eye [8] (eye-drop containing 1.0% w/v tramadol, compared with 0.5% w/v) is “even more rapid and effective results”.
